Results reported in US10414759B2, “Phenylthiazoles and uses thereof” (Purdue Research Foundation, priority 2017, dated 2019).
In brackets after ≈: the same amount, converted by molar mass. Each block holds one compound with its values, some of them ahead of it.

How the values were obtained:
[1] = system: MRSA (2658 RCMB); test: MIC against MRSA (2658 RCMB), broth dilution; format: cell-based, Staphylococcus aureus; conditions: Staphylococcus aureus; Table 7; initial screening, MRSA (2658 RCMB); read-out: minimum inhibitory concentration (MIC)
Method: (§1) Bacteria were cultured in cation-adjusted Mueller Hinton broth in a 96-well plate. Compounds, using triplicate samples, were added to the plate and serially diluted. […] Plates were visually inspected and the MIC was categorized as the concentration at which no visible growth of bacteria was observed. The average of triplicate MIC determinations is reported.
(§2) A bacterial solution equivalent to 0.5 McFarland standard was prepared and diluted in cation-adjusted Mueller-Hinton broth (CAMHB) to achieve a bacterial concentration of about 5×10^5 CFU/mL and seeded in 96-well plates. Enterococcus faecium was diluted in brain heart infusion broth. Enterococcus faecalis, Streptococcus pneumonia and Listeria monocytogenes were diluted in tryptone soya broth (TSB).

[2] = system: S. aureus NRS107; test: MIC/MBC S. aureus strains (Table 8); format: cell-based, Staphylococcus aureus
Method: as §2

[3] = system: VRS10 (VRSA); test: MIC/MBC S. aureus strains (Table 8); format: cell-based; conditions: Staphylococcus aureus, Table 8, VRS10 (VRSA); for MBC: read-out: MBC
Method: (§3) The minimum inhibitory concentration (MIC) of tested compounds and control antibiotics were determined using the broth microdilution method in accordance with the recommendations contained in the Clinical and Laboratory Standards Institute guidelines, against methicillin-sensitive (ATCC 6538 and NRS107), methicillin-resistant (MRSA), and vancomycin-resistant (VRSA) Staphylococcus aureus, Staphylococcus epidermidis, Enterococcus faecalis, E. faecium, Listeria monocytogenes, and Streptococcus pneumoniae clinical isolates. A bacterial solution equivalent to 0.5 McFarland standard was prepared and diluted in cation-adjusted Mueller-Hinton broth (CAMHB) to achieve a bacterial concentration of about 5×10^5 CFU/mL and seeded in 96-well plates. Enterococcus faecium was diluted in brain heart infusion broth. Enterococcus faecalis, Streptococcus pneumonia and Listeria monocytogenes were diluted in tryptone soya broth (TSB). Compounds and control drugs were added in the first row of 96-well plates and serially diluted (to achieve a concentration gradient ranging from 128 to 1 μg/mL). Plates were then incubated aerobically at 37° C. for at least 18 hours. The minimum bactericidal concentration (MBC) of the active compounds was tested by plating 5 μL from wells with no growth onto Tryptic soy agar (TSA) plates.

[4] = system: VRS12 (VRSA); test: MIC/MBC S. aureus strains (Table 8); format: cell-based; conditions: Staphylococcus aureus, Table 8, VRS12 (VRSA); for MBC: read-out: MBC
Method: as §3

[5] = system: MRSA NRS119; test: MIC/MBC S. aureus strains (Table 8); format: cell-based; conditions: Staphylococcus aureus
Method: as §2

[6] = system: MRSA NRS386; test: MIC/MBC S. aureus strains (Table 8); format: cell-based; conditions: Staphylococcus aureus
Method: as §2

[7] = system: MRSA NRS123 (USA400); test: MIC/MBC S. aureus strains (Table 8); format: cell-based; conditions: Staphylococcus aureus
Method: as §2

[8] = system: MRSA NRS384 (USA300); test: MIC/MBC S. aureus strains (Table 8); format: cell-based; conditions: Staphylococcus aureus
Method: as §2

[9] = system: S. aureus ATCC 6538; test: MIC/MBC S. aureus strains (Table 8); format: cell-based; conditions: Staphylococcus aureus, ATCC6538
Method: as §2

[10] = system: MRSA NRS385; test: MIC/MBC S. aureus strains (Table 8); format: cell-based; conditions: Staphylococcus aureus
Method: as §2

[11] = system: MRSA (USA300); test: Time-kill assay; format: cell-based, Staphylococcus aureus; conditions: 3.0×MIC
Method: Aliquots (100 μL) were taken from each sample after 2, 4, 6, 8, 10, 12, and 24 hours, serially diluted in phosphate-buffered saline, and transferred to Trypticase soy agar (TSA) (Becton, Dickinson and Company, Sparks, Md., USA) plates. Plates were incubated at 37° C. for at least 16 hours before counting viable CFU/mL to determine the time required to reduce the bacterial cell count by 3-log10.

[12] = system: Methicillin-resistant Staphylococcus epidermidis NRS101; test: MIC/MBC Gram-positive pathogens (Table 9); format: cell-based
Method: as §2

[13] = system: Methicillin-resistant Streptococcus pneumoniae ATCC 700677; test: MIC/MBC Gram-positive pathogens (Table 9); format: cell-based; conditions: ATCC700677
Method: as §2

[14] = system: Enterococcus faecalis ATCC 51299 (VRE); test: MIC/MBC Gram-positive pathogens (Table 9); format: cell-based; conditions: Table 9, Enterococcus faecalis ATCC 51299 (VRE)
Method: as §2

[15] = system: Listeria monocytogenes ATCC 19111; test: MIC/MBC Gram-positive pathogens (Table 9); format: cell-based
Method: as §2

[16] = system: Cephalosporin-resistant Streptococcus pneumoniae ATCC 51916; test: MIC/MBC Gram-positive pathogens (Table 9); format: cell-based; conditions: ATCC51916
Method: as §2

[17] = system: Enterococcus faecium ATCC 700221 (VRE); test: MIC/MBC Gram-positive pathogens (Table 9); format: cell-based; conditions: Table 9; Enterococcus faecium ATCC 700221 (VRE); read-out: MIC
Method: as §3

[18] = system: NRS383 (MRSA USA200); test: MIC/MBC clinical isolate panel (Table 3); format: cell-based, S. aureus; conditions: Staphylococcus aureus, Table 3, NRS383 (MRSA USA200)
Method: as §1, §2

[19] = system: NRS382 (MRSA USA100); test: MIC/MBC clinical isolate panel (Table 3); format: cell-based, S. aureus; conditions: Staphylococcus aureus, Table 3, NRS382 (MRSA USA100)
Method: as §1, §2

[20] = system: NRS72 (MSSA); test: MIC/MBC clinical isolate panel (Table 3); format: cell-based, S. aureus; conditions: Staphylococcus aureus, Table 3, NRS72 (MSSA)
Method: as §1, §2

[21] = system: NRS123 (MRSA USA400); test: MIC/MBC clinical isolate panel (Table 3); format: cell-based, S. aureus; conditions: Staphylococcus aureus; Table 3; NRS123 (MRSA USA400)
Method: as §1, §2

[22] = system: NRS384 (MRSA USA300); test: MIC/MBC clinical isolate panel (Table 3); format: cell-based, S. aureus; conditions: Staphylococcus aureus; Table 3; NRS384 (MRSA USA300)
Method: as §1, §2

[23] = system: VRSA10; test: MIC/MBC clinical isolate panel (Table 3); format: cell-based, S. aureus; conditions: Staphylococcus aureus, Table 3, VRSA10
Method: as §1, with “MRSA clinical isolates, and vancomycin-resistant Staphylococcus aureus (VRSA) strain were obtained through the Network of Antimicrobial Resistance in Staphylococcus aureus (NARSA) program. In addition, vancomycin-resistant Enterococcus faecium (VRE) strain was obtained from the ATCC. Bacteria” for “Bacteria”
as §3

[24] = system: VRE ATCC 700221; test: MIC/MBC clinical isolate panel (Table 3); format: cell-based, Enterococcus faecium; conditions: Enterococcus, Table 3, VRE ATCC 700221
Method: as §1, with “MRSA clinical isolates, and vancomycin-resistant Staphylococcus aureus (VRSA) strain were obtained through the Network of Antimicrobial Resistance in Staphylococcus aureus (NARSA) program. In addition, vancomycin-resistant Enterococcus faecium (VRE) strain was obtained from the ATCC. Bacteria” for “Bacteria”
as §3

[25] = Staphylococcus aureus, Table 8, S. aureus NRS107

MIC [1]: 0.78 µg/mL (≈ 1.82 µM)
MIC [2, 25]: 64 µg/mL (≈ 149 µM)
MIC ([3]; read-out: MIC): 2 µg/mL (≈ 4.67 µM)
MIC ([4]; read-out: MIC): 4 µg/mL (≈ 9.33 µM)
MIC [5]: 4 µg/mL (≈ 9.33 µM)
MIC [6]: 2 µg/mL (≈ 4.67 µM)
MIC [7]: 2 µg/mL (≈ 4.67 µM)
MIC [8]: 4 µg/mL (≈ 9.33 µM)
MIC [9]: 2 µg/mL (≈ 4.67 µM)
MIC [10]: 4 µg/mL (≈ 9.33 µM)
MIC [12]: 64 µg/mL (≈ 149 µM)
MIC [13]: 8 µg/mL (≈ 18.7 µM)
MIC [14]: 64 µg/mL (≈ 149 µM)
MIC ([15]; ATCC19111, Table 9, Listeria monocytogenes ATCC 19111): 2 µg/mL (≈ 4.67 µM)
MBC values relative to MIC values against L. monocytogenes ([15]; text b122): more than three-fold higher
MIC [16]: 4 µg/mL (≈ 9.33 µM)
MIC [17]: 4 µg/mL (≈ 9.33 µM)
SMILES: Cc1nc(-c2ccc(C(C)(C)C)cc2)sc1-c1ccnc(NC(=N)c2ccccn2)n1 [Compound 64, N-(4-(2-(4-(tert-Butyl)phenyl)-4-methylthiazol-5-yl)pyrimidin-2-yl) picolinimidamide]
MBC [2, 25]: > 64 µg/mL
activity against S. aureus NRS107, in words ([2]; text b117): inactive
MBC [3]: 4 µg/mL (≈ 9.33 µM)
MBC [4]: 4 µg/mL (≈ 9.33 µM)
MBC [5]: 4 µg/mL (≈ 9.33 µM)
MBC [6]: 2 µg/mL (≈ 4.67 µM)
MBC [7]: 2 µg/mL (≈ 4.67 µM)
MBC [8]: 4 µg/mL (≈ 9.33 µM)
MBC [9]: 4 µg/mL (≈ 9.33 µM)
MBC [10]: 4 µg/mL (≈ 9.33 µM)
time to three-log10 reduction in the initial inoculum of MRSA [11]: within six hours
bactericidal / bacteriostatic behaviour in time-kill assay, in words ([11]; MRSA): rapid bactericidal activity
time to completely eradicate the MRSA inoculum ([11]; t-butyl series): ≤ 24 h
MBC [12]: > 64 µg/mL
MBC [13]: 8 µg/mL (≈ 18.7 µM)
MBC ([14]; read-out: MBC): > 64 µg/mL
MBC [16]: 4 µg/mL (≈ 9.33 µM)

MIC ([18]; read-out: MIC): 1 µg/mL (≈ 2.96 µM)
MIC ([19]; read-out: MIC): 1 µg/mL (≈ 2.96 µM)
MIC ([20]; read-out: MIC): 1 µg/mL (≈ 2.96 µM)
MIC [5]: 32 µg/mL (≈ 94.9 µM)
MIC [7]: 1 µg/mL (≈ 2.96 µM)
MIC [8]: 1 µg/mL (≈ 2.96 µM)
MIC ([23]; read-out: MIC): 1 µg/mL (≈ 2.96 µM)
MIC ([24]; read-out: MIC): 1 µg/mL (≈ 2.96 µM)
SMILES: CC(=O)NC[C@H]1CN(c2ccc(N3CCOCC3)c(F)c2)C(=O)O1 [Linezolid, linezolid]
MBC [18]: 32 µg/mL (≈ 94.9 µM)
MBC [19]: 8 µg/mL (≈ 23.7 µM)
MBC [20]: 2 µg/mL (≈ 5.93 µM)
MBC [21]: 16 µg/mL (≈ 47.4 µM)
MBC [22]: 4 µg/mL (≈ 11.9 µM)
MBC [3]: 64 µg/mL (≈ 190 µM)
MBC [4]: 64 µg/mL (≈ 190 µM)
MBC [5]: > 64 µg/mL
MBC [6]: 64 µg/mL (≈ 190 µM)
MBC ([23]; read-out: MBC): 2 µg/mL (≈ 5.93 µM)
MBC ([24]; read-out: MBC): 32 µg/mL (≈ 94.9 µM)
